Measurements as given in ChEMBL document CHEMBL1153382 (J Med Chem, 2009).
The source made the active and inactive calls. The rule behind the calls is not given here.

Key:
[1] = target: T1, 5-hydroxytryptamine receptor 2A (Homo sapiens, UniProt P28223); assay: Agonist activity at human 5HT2A receptor expressed in HEK293 cells at 10 uM assessed as calcium flux by FLIPR assay relative to serotonin; format: functional, cell-based
[2] = target: T2, 5-hydroxytryptamine receptor 2B (Homo sapiens, UniProt P41595); assay: Agonist activity at human 5HT2B receptor expressed in HEK293 cells at 10 uM assessed as calcium flux by FLIPR assay relative to serotonin; format: functional, cell-based
T2 sequence (P41595 whole entry): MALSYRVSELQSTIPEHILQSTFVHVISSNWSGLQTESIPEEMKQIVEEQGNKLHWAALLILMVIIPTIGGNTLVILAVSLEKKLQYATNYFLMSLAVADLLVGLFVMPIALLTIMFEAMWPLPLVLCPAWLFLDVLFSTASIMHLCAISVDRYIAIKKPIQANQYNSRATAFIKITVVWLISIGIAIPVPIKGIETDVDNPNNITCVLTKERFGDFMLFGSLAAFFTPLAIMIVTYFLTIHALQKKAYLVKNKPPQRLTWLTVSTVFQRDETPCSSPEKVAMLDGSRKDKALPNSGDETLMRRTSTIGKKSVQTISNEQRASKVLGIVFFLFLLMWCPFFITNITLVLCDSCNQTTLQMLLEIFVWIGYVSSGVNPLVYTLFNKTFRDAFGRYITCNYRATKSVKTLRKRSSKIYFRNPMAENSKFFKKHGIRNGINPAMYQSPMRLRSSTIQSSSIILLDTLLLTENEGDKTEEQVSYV

[3] = target: T1, 5-hydroxytryptamine receptor 2A; assay: Agonist activity at human 5HT2A receptor expressed in HEK293 cells assessed as calcium flux by FLIPR assay; format: functional, cell-based
[4] = target: T3, 5-hydroxytryptamine receptor 2C (Homo sapiens, UniProt P28335); assay: Agonist activity at human 5HT2C receptor expressed in HEK293 cells assessed as calcium flux by FLIPR assay; format: functional, cell-based
T3 sequence (P28335 whole entry): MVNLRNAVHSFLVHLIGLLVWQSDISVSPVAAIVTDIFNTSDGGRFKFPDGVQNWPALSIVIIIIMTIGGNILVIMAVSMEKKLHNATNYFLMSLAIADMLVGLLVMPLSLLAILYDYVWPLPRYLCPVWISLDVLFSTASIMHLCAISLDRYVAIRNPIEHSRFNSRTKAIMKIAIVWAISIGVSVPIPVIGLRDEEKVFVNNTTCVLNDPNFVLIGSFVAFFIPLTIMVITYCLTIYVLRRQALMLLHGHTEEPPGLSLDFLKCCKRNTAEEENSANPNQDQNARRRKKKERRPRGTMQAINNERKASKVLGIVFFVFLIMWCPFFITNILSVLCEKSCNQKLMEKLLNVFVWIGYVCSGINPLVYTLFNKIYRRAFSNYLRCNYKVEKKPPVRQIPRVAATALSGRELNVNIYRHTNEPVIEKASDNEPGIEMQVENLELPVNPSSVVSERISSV

[5] = target: T2, 5-hydroxytryptamine receptor 2B; assay: Agonist activity at human 5HT2B receptor expressed in HEK293 cells assessed as calcium flux by FLIPR assay; format: functional, cell-based
[6] = species: Homo sapiens; assay: Selectivity ratio of EC50 for human 5HT2B receptor to EC50 for human 5HT2C receptor
[7] = target: T4, 5-hydroxytryptamine receptor 2C (Homo sapiens) (UniProt P28335); assay: Agonist activity at human 5HT2C receptor expressed in HEK293 cells at 10 uM assessed as calcium flux by FLIPR assay relative to serotonin; format: functional, cell-based
T4 sequence (whole entry): T3 sequence (P28335 whole entry)

[8] = target: Serotonin 2 receptors; 5-HT2a & 5-HT2c (Homo sapiens) (UniProt P28223+P28335); assay: Selectivity ratio of EC50 for human 5HT2A receptor to EC50 for human 5HT2C receptor
Serotonin 2 receptors; 5-HT2a & 5-HT2c (Homo sapiens), sequence (P28223 whole entry, looked up, one chain of several): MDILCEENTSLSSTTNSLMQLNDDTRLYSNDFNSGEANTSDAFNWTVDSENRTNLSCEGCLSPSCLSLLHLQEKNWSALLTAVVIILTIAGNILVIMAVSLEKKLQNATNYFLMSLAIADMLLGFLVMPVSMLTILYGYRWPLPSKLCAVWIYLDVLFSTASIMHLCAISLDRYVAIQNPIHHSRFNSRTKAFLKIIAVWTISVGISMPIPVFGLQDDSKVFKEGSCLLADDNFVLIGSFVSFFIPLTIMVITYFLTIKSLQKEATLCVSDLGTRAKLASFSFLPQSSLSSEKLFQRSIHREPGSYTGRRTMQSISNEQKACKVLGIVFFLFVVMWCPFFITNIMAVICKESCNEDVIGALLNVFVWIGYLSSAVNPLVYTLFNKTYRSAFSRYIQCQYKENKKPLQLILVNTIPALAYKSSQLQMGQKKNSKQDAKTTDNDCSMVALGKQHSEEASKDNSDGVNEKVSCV

T1 sequence (P28223 whole entry): as the sequence (P28223 whole entry, looked up, one chain of several) above

SMILES	Emax [1] [%]	Emax [2] [%]	Activity [3]	EC50 [4] [nM]	Activity [5]	EC50 [5] [nM]	Ratio EC50 [6]	Emax [7] [%]	Ratio EC50 [8]	EC50 [3] [nM]
c1cc2c3c(c1)c1c(n3CCNC2)CCCC1	< 12	< 12	inactive	261	inactive	–	–	–	–	–
NC[C@@H]1C[C@H]1c1ccccc1 [listing 1 of 2 here]	–	–	–	909	–	3090	–	–	–	–
NC[C@@H]1C[C@H]1c1ccccc1Br [listing 1 of 2 here]	–	–	–	78	–	224	–	–	–	–
NC[C@@H]1C[C@H]1c1ccccc1 [listing 2 of 2 here]	< 12	72	inactive	–	–	–	3.4	102	–	–
NC[C@@H]1C[C@H]1c1ccccc1Br [listing 2 of 2 here]	< 12	96	inactive	–	–	–	2.9	113	> 128	–
CNC[C@H]1C[C@@H]1c1ccccc1 (racemic)	< 12	26	inactive	–	–	–	–	101	–	–
NC[C@H]1C[C@H]1c1ccccc1 (racemic)	< 12	20	inactive	–	–	–	–	104	–	–
c1ccc(CNC[C@H]2C[C@@H]2c2ccccc2)cc1 (racemic)	< 12	10	inactive	–	inactive	–	–	97	–	–
N[C@@H]1C[C@H]1c1ccccc1.N[C@H]1C[C@@H]1c1ccccc1 (racemic) [TRANYLCYPROMINE]	< 12	29	inactive	2700	–	> 5000	–	109	–	–
NC[C@H]1C[C@@H]1c1cccc(NC(=O)c2ccccc2)c1 (relative stereo)	< 12	< 12	inactive	> 1000	inactive	–	–	26	–	–
CC(C)(O)C#Cc1cccc([C@H]2C[C@@H]2CN)c1 (relative stereo)	< 12	< 12	inactive	> 5000	inactive	–	–	62	–	–
NC[C@H]1C[C@@H]1c1ccc(C#CCCCCO)cc1 (relative stereo)	< 12	< 12	inactive	> 10000	inactive	–	–	24	–	–
NC[C@@H]1C[C@H]1c1ccccc1 (relative stereo) [listing 1 of 2 here]	–	–	–	13	–	85	–	–	–	1400
COc1ccc([C@H]2C[C@@H]2CN)cc1 (relative stereo)	< 12	< 12	inactive	–	inactive	–	–	86	–	–
COc1cccc([C@H]2C[C@@H]2CN)c1 (relative stereo)	90	96	–	–	–	–	4.8	97	39	–
COc1ccccc1[C@H]1C[C@@H]1CN (relative stereo)	61	83	–	–	–	–	7.7	93	84	–
Cc1cc([C@H]2C[C@@H]2CN)ccc1F (relative stereo)	73	83	–	–	–	–	0.83	91	39	–
Cc1ccc(Cl)c([C@H]2C[C@@H]2CN)c1F (relative stereo)	65	74	–	–	–	–	9.2	117	26	–
Cc1ccc([C@H]2C[C@@H]2CN)c(Br)c1 (relative stereo)	62	68	–	–	–	–	1.2	84	4.8	–
Cc1ccc([C@H]2C[C@@H]2CN)cc1 (relative stereo)	18	79	–	–	–	–	0.28	69	14	–
Cc1ccc([C@H]2C[C@@H]2CN)cc1C (relative stereo)	40	78	–	–	–	–	0.33	97	68	–
Cc1cccc(Cl)c1[C@H]1C[C@@H]1CN (relative stereo)	56	90	–	–	–	–	2	97	207	–
Cc1cccc([C@H]2C[C@@H]2CN)c1C (relative stereo)	59	90	–	–	–	–	1.2	107	52	–

SMILES	Emax [1] [%]	Emax [2] [%]	Activity [3]	EC50 [4] [nM]	Activity [5]	EC50 [5] [nM]	Ratio EC50 [6]	Emax [7] [%]	Ratio EC50 [8]	EC50 [3] [nM]
Cc1ccccc1[C@H]1C[C@@H]1CN (relative stereo)	69	86	–	–	–	–	2.3	99	71	–
NC[C@@H]1C[C@H]1c1ccccc1 (relative stereo) [listing 2 of 2 here]	74	93	–	–	–	–	6	96	106	–
NC[C@H]1C[C@@H]1c1c(F)cccc1F (relative stereo)	38	58	–	–	–	–	39	85	> 11	–
NC[C@H]1C[C@@H]1c1ccc(Br)cc1 (relative stereo)	26	51	–	–	–	–	20	87	> 7	–
NC[C@H]1C[C@@H]1c1ccc(C(F)(F)F)cc1 (relative stereo)	< 12	56	inactive	–	–	–	–	91	–	–
NC[C@H]1C[C@@H]1c1ccc(Cl)cc1 (relative stereo)	64	80	–	–	–	–	5.3	106	59	–
NC[C@H]1C[C@@H]1c1ccc(Cl)cc1Cl (relative stereo)	88	89	–	–	–	–	4.7	98	2.9	–
NC[C@H]1C[C@@H]1c1ccc(Cl)cc1F (relative stereo)	83	86	–	–	–	–	3.6	94	6.1	–
NC[C@H]1C[C@@H]1c1ccc(F)c(F)c1 (relative stereo)	96	96	–	–	–	–	3.2	103	64	–
NC[C@H]1C[C@@H]1c1ccc(F)cc1F (relative stereo)	85	88	–	–	–	–	9.9	98	13	–
NC[C@H]1C[C@@H]1c1ccc2ccccc2c1 (relative stereo)	< 12	21	inactive	–	–	–	0.18	60	–	–
NC[C@H]1C[C@@H]1c1cccc(Br)c1 (relative stereo)	55	74	–	–	–	–	10	90	123	–
NC[C@H]1C[C@@H]1c1cccc(C(F)(F)F)c1 (relative stereo)	35	78	–	–	–	–	2.6	94	50	–
NC[C@H]1C[C@@H]1c1cccc(Cl)c1 (relative stereo)	42	78	–	–	–	–	5.9	98	189	–
NC[C@H]1C[C@@H]1c1cccc(Cl)c1Cl (relative stereo)	77	89	–	–	–	–	1.4	96	33	–
NC[C@H]1C[C@@H]1c1cccc(F)c1 (relative stereo)	71	87	–	–	–	–	1.1	92	131	–
NC[C@H]1C[C@@H]1c1cccc(F)c1F (relative stereo)	45	93	–	–	–	–	3.7	101	> 50	–
NC[C@H]1C[C@@H]1c1cccc(O)c1 (relative stereo)	92	98	–	–	–	–	1.7	94	75	–
NC[C@H]1C[C@@H]1c1ccccc1C(F)(F)F (relative stereo)	< 12	102	inactive	–	–	–	7.2	101	–	–
NC[C@H]1C[C@@H]1c1ccccc1Cl (relative stereo)	54	82	–	–	–	–	5.8	94	31	–
NC[C@H]1C[C@@H]1c1ccccc1F (relative stereo)	52	65	–	–	–	–	2.1	91	20	–
NC[C@H]1C[C@@H]1c1ccccc1O (relative stereo)	81	74	–	–	–	–	3.1	94	3.2	–
